Results published in article PMC12300041, “Tricyclic Isatin Derivatives as Anti-Inflammatory Compounds with High Kinase Binding Affinity” (Molecules, 2025).

Assays:
Test in all cases: KINOMEscan
Type in all cases: binding
AKT1 = molecular target: T1, AKT1 (Homo sapiens, UniProt P31749)
T1 construct: purchased Eurofins DiscoverX KINOMEscan
Summary of the method: (§1)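 Competition binding run for 1 h at room temperature; kinase left unbound by compound was captured on an immobilized affinity ligand and quantified by qPCR. Kd was taken from a 12-point half-log dilution series with a 33 μM top concentration.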

ANKK1 = molecular target: T2, ANKK1 (Homo sapiens, UniProt Q8NFD2)
T2 construct: purchased Eurofins DiscoverX KINOMEscan
Summary of the method: as §1

CAMK1B = molecular target: T3, CAMK1B (Homo sapiens, UniProt Q6P2M8)
T3 construct: purchased Eurofins DiscoverX KINOMEscan
Summary of the method: as §1

CAMK2G = molecular target: T4, CAMK2G (Homo sapiens, UniProt Q13555)
T4 construct: purchased Eurofins DiscoverX KINOMEscan
Summary of the method: as §1

CASK = molecular target: T5, CASK (Homo sapiens, UniProt O14936)
T5 construct: purchased Eurofins DiscoverX KINOMEscan
Summary of the method: as §1

CHEK2 = molecular target: T6, CHEK2 (Homo sapiens, UniProt O96017)
T6 construct: purchased Eurofins DiscoverX KINOMEscan
Summary of the method: as §1

CTK = molecular target: T7, CTK (Homo sapiens, UniProt P42679)
T7 construct: purchased Eurofins DiscoverX KINOMEscan
Summary of the method: as §1

DLK = molecular target: T8, DLK (Homo sapiens, UniProt Q12852)
T8 construct: purchased Eurofins DiscoverX KINOMEscan
T8 sequence (Q12852 whole entry): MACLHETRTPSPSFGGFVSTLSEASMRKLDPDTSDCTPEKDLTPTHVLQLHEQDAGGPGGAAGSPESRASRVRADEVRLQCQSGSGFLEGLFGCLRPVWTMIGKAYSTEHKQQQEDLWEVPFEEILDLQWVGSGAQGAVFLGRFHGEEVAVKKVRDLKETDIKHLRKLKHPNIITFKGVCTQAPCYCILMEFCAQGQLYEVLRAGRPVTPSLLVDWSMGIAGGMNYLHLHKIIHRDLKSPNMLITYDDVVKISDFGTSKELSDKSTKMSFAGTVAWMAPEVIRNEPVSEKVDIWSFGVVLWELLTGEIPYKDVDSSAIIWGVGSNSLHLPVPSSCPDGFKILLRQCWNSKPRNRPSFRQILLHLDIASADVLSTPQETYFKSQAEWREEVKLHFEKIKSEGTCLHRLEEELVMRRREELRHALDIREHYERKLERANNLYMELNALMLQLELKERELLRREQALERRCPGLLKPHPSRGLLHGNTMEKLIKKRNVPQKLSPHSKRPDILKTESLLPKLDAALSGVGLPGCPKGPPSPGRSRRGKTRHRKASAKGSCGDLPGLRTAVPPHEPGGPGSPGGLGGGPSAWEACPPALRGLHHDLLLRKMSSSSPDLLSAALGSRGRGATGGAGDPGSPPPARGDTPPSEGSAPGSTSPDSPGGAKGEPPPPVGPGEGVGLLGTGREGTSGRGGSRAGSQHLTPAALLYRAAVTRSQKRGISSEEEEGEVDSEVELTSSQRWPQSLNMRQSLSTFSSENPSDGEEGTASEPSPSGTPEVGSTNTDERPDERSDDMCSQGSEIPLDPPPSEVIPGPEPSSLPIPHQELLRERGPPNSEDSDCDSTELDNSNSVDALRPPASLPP
Summary of the method: as §1

DRAK2 = molecular target: T9, DRAK2 (Homo sapiens, UniProt O94768)
T9 construct: purchased Eurofins DiscoverX KINOMEscan
Summary of the method: as §1

EGFR (L861Q) = molecular target: T10, EGFR (L861Q) (Homo sapiens, UniProt P00533, L861Q)
T10 construct: purchased Eurofins DiscoverX KINOMEscan
Summary of the method: as §1

EPHA5 = molecular target: T11, EPHA5 (Homo sapiens, UniProt P54756)
T11 construct: purchased Eurofins DiscoverX KINOMEscan
Summary of the method: as §1

EPHB1 = molecular target: T12, EPHB1 (Homo sapiens, UniProt P54762)
T12 construct: purchased Eurofins DiscoverX KINOMEscan
Summary of the method: as §1

FES = molecular target: T13, FES (Homo sapiens, UniProt P07332)
T13 construct: purchased Eurofins DiscoverX KINOMEscan
Summary of the method: as §1

FLT3 (D835V) = molecular target: T14, FLT3 (D835V) (Homo sapiens, UniProt P36888, D835V)
T14 construct: purchased Eurofins DiscoverX KINOMEscan
Summary of the method: as §1

HCK = molecular target: T15, HCK (Homo sapiens, UniProt P08631)
T15 construct: purchased Eurofins DiscoverX KINOMEscan
T15 sequence (P08631 whole entry): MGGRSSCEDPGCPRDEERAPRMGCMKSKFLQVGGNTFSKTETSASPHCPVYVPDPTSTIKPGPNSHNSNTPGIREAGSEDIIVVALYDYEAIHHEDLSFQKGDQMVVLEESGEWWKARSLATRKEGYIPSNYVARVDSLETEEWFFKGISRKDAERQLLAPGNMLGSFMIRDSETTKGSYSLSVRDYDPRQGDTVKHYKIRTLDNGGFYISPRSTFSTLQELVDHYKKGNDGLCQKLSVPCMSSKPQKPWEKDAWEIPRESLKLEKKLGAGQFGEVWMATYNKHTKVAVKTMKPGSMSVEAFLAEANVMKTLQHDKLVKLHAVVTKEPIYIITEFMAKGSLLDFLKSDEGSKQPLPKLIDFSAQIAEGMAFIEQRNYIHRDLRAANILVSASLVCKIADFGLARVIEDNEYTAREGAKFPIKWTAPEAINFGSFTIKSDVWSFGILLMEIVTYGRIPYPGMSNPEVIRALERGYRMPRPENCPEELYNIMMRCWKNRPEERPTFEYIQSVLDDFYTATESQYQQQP
Summary of the method: as §1

IKK-β = molecular target: T16, IKK-β (Homo sapiens, UniProt O14920)
T16 construct: purchased Eurofins DiscoverX KINOMEscan
Summary of the method: as §1

MAP4K3 = molecular target: T17, MAP4K3 (Homo sapiens, UniProt Q8IVH8)
T17 construct: purchased Eurofins DiscoverX KINOMEscan
Summary of the method: as §1

MAP4K4 = molecular target: T18, MAP4K4 (Homo sapiens, UniProt O95819)
T18 construct: purchased Eurofins DiscoverX KINOMEscan
T18 sequence (O95819 whole entry): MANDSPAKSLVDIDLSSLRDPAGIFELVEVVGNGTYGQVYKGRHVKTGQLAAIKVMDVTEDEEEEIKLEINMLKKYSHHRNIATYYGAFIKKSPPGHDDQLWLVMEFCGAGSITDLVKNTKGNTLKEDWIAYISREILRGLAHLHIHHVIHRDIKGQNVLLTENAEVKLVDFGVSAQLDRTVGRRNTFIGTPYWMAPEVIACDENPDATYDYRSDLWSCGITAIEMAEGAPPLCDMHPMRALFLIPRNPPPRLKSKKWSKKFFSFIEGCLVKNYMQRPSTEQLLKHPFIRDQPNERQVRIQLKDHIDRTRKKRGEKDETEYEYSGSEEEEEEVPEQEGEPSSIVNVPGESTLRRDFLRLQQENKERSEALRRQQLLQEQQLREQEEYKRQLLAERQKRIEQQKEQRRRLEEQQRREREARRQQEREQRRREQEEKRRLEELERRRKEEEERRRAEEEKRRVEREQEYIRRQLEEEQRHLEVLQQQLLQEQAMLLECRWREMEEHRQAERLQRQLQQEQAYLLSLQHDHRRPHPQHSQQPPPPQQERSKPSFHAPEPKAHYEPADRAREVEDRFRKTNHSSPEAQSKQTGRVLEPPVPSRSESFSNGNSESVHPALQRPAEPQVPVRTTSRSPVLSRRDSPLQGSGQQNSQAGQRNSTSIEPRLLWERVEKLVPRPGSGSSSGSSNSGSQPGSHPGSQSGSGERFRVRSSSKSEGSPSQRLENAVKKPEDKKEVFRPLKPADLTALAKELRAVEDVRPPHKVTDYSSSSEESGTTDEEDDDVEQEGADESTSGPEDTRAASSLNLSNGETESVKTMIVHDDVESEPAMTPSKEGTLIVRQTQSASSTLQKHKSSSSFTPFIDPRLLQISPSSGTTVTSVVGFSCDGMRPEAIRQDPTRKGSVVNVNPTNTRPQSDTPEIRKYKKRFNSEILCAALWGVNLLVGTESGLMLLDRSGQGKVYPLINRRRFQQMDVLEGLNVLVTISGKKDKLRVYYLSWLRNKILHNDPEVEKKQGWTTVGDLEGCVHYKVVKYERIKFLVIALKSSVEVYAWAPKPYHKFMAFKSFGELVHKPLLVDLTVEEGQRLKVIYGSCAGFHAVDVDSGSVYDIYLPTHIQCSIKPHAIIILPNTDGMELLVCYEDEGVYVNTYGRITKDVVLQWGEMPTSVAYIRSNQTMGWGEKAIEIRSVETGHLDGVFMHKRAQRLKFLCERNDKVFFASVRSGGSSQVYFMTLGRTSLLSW
Summary of the method: as §1

MARK4 = molecular target: T19, MARK4 (Homo sapiens, UniProt Q96L34)
T19 construct: purchased Eurofins DiscoverX KINOMEscan
Summary of the method: as §1

MLCK = molecular target: T20, MLCK (Homo sapiens, UniProt Q32MK0)
T20 construct: purchased Eurofins DiscoverX KINOMEscan
Summary of the method: as §1

MLK2 = molecular target: T21, MLK2 (Homo sapiens, UniProt Q02779)
T21 construct: purchased Eurofins DiscoverX KINOMEscan
Summary of the method: as §1

MYLK2 = molecular target: T22, MYLK2 (Homo sapiens, UniProt Q9H1R3)
T22 construct: purchased Eurofins DiscoverX KINOMEscan
T22 sequence (Q9H1R3 whole entry): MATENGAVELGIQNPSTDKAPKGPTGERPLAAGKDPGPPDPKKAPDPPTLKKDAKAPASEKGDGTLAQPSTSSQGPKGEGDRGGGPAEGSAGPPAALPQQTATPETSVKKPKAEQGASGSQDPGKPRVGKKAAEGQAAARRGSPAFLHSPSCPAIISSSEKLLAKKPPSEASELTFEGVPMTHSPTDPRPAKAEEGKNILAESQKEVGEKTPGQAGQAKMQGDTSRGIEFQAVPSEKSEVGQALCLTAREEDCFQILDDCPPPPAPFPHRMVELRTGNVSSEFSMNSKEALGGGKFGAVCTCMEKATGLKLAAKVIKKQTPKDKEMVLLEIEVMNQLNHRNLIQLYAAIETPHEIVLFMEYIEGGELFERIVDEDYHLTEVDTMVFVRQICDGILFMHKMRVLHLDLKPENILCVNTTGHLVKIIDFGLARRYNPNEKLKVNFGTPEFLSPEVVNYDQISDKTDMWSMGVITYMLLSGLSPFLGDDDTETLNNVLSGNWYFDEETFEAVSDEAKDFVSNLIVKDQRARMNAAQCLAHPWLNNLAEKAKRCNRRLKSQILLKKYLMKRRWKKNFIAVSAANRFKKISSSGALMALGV
Summary of the method: as §1

NEK4 = molecular target: T23, NEK4 (Homo sapiens, UniProt P51957)
T23 construct: purchased Eurofins DiscoverX KINOMEscan
Summary of the method: as §1

PCTK2 = molecular target: T24, PCTK2 (Homo sapiens, UniProt Q00537)
T24 construct: purchased Eurofins DiscoverX KINOMEscan
Summary of the method: as §1

PDGFRB = molecular target: T25, PDGFRB (Homo sapiens, UniProt P09619)
T25 construct: purchased Eurofins DiscoverX KINOMEscan
Summary of the method: as §1

PIK3CA (E542K) = molecular target: T26, PIK3CA (E542K) (Homo sapiens, UniProt P42336, E542K)
T26 construct: purchased Eurofins DiscoverX KINOMEscan
Summary of the method: as §1

PIK4CB = molecular target: T27, PIK4CB (Homo sapiens, UniProt Q9UBF8)
T27 construct: purchased Eurofins DiscoverX KINOMEscan
Summary of the method: as §1

PKMYT1 = molecular target: T28, PKMYT1 (Homo sapiens, UniProt Q99640)
T28 construct: purchased Eurofins DiscoverX KINOMEscan
Summary of the method: as §1

RET = molecular target: T29, RET (Homo sapiens, UniProt P07949)
T29 construct: purchased Eurofins DiscoverX KINOMEscan
Summary of the method: as §1

RIPK4 = molecular target: T30, RIPK4 (Homo sapiens, UniProt P57078)
T30 construct: purchased Eurofins DiscoverX KINOMEscan
Summary of the method: as §1

[1] = molecular target: T31, RPS6KA4 (Kin. Dom.1-N-term.) (Homo sapiens, UniProt O75676)
T31 construct: RPS6KA4 (Kin. Dom.1-N-term.); purchased Eurofins DiscoverX KINOMEscan
T31 sequence (O75676 1-371 limits assumed): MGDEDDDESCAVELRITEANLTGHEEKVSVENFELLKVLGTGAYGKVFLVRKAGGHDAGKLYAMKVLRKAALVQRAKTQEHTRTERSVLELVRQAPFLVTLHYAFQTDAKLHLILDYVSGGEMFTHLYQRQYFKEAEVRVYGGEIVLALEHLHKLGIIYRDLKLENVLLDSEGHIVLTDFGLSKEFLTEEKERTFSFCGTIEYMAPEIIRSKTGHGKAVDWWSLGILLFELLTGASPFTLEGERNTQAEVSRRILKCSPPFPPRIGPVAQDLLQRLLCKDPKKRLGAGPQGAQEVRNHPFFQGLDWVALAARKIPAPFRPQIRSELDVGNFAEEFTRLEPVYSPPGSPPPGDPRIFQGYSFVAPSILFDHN
Summary of the method: as §1

[2] = molecular target: T32, RSK4 (Kin. Dom.2-C-term.) (Homo sapiens, UniProt Q9UK32)
T32 construct: RSK4 (Kin. Dom.2-C-term.); purchased Eurofins DiscoverX KINOMEscan
T32 sequence (Q9UK32 401-745 limits assumed): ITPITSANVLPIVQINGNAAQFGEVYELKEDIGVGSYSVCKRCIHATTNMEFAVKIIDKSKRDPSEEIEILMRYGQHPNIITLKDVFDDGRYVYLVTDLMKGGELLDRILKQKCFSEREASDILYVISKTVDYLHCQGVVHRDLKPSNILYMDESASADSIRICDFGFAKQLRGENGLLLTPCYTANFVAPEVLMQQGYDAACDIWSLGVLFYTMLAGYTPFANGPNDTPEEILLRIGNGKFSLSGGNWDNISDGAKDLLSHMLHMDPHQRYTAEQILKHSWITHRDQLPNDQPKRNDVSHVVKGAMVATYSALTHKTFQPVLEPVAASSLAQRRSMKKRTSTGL
Summary of the method: as §1

SGK2 = molecular target: T33, SGK2 (Homo sapiens, UniProt Q9HBY8)
T33 construct: purchased Eurofins DiscoverX KINOMEscan
T33 sequence (Q9HBY8 whole entry): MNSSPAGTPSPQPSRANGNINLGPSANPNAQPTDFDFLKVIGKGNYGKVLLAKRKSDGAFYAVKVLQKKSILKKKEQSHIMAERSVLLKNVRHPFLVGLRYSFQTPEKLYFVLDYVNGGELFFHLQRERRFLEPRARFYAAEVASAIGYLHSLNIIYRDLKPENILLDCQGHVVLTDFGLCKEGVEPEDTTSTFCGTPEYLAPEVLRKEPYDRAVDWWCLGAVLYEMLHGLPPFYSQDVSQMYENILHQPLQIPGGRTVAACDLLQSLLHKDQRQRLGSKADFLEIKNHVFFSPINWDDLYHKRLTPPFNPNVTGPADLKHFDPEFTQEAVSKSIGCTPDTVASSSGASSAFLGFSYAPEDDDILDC
Summary of the method: as §1

SGK3 = molecular target: T34, SGK3 (Homo sapiens, UniProt Q96BR1)
T34 construct: purchased Eurofins DiscoverX KINOMEscan
Summary of the method: as §1

TAOK2 = molecular target: T35, TAOK2 (Homo sapiens, UniProt Q9UL54)
T35 construct: purchased Eurofins DiscoverX KINOMEscan
Summary of the method: as §1

TGFBR2 = molecular target: T36, TGFBR2 (Homo sapiens, UniProt P37173)
T36 construct: purchased Eurofins DiscoverX KINOMEscan
Summary of the method: as §1

VPS34 = molecular target: T37, VPS34 (Homo sapiens, UniProt Q8NEB9)
T37 construct: purchased Eurofins DiscoverX KINOMEscan
Summary of the method: as §1

VRK2 = molecular target: T38, VRK2 (Homo sapiens, UniProt Q86Y07)
T38 construct: purchased Eurofins DiscoverX KINOMEscan
Summary of the method: as §1

YANK3 = molecular target: T39, YANK3 (Homo sapiens, UniProt Q86UX6)
T39 construct: purchased Eurofins DiscoverX KINOMEscan
T39 sequence (Q86UX6 whole entry): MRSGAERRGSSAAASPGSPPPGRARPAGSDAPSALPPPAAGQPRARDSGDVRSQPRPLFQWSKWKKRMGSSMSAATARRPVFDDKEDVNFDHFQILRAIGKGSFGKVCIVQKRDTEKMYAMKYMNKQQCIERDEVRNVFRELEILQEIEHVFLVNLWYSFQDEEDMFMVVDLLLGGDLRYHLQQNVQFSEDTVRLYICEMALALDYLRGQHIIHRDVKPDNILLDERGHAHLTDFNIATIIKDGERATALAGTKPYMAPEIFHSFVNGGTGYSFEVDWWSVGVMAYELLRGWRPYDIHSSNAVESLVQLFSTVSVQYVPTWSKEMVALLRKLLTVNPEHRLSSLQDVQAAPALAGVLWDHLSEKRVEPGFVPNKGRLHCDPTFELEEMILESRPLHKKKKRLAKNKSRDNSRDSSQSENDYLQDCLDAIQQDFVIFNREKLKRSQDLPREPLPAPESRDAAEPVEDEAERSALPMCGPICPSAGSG
Summary of the method: as §1

`O=C1Nc2c(cc([N+](=O)[O-])c3c2CCCC3)C1=NO` [Compound 5d, 3-(Hydroxyimino)-5-nitro-1,3,6,7,8,9-hexahydro-2H-benzo[g]indol-2-one] was tested, and the inhibition at 10 µM (AKT1) was 10%, the inhibition at 10 µM (ANKK1) was 8% and the inhibition at 10 µM (CAMK1B) was 12%. It also gave an inhibition at 10 µM (CAMK2G) of 25%, an inhibition at 10 µM (CASK) of 2% and an inhibition at 10 µM (CHEK2) of 48%. It also gave an inhibition at 10 µM (CTK) of 0%, an inhibition at 10 µM (DLK) of 23% and an inhibition at 10 µM (DRAK2) of 78%. The inhibition at 10 µM (EGFR (L861Q)) was 12%, the inhibition at 10 µM (EPHA5) was 9% and the inhibition at 10 µM (EPHB1) was 0%. For the same compound, the inhibition at 10 µM (FES) was 0%, the inhibition at 10 µM (FLT3 (D835V)) was 72% and the inhibition at 10 µM (HCK) was 20%. The inhibition at 10 µM (IKK-β) was 50%, the inhibition at 10 µM (MAP4K3) was 11% and the inhibition at 10 µM (MAP4K4) was 47%. For the same compound, the inhibition at 10 µM (MARK4) was 20%, the inhibition at 10 µM (MLCK) was 11% and the inhibition at 10 µM (MLK2) was 4%. The inhibition at 10 µM (MYLK2) was 30%, the inhibition at 10 µM (NEK4) was 1% and the inhibition at 10 µM (PCTK2) was 0%. The inhibition at 10 µM (PDGFRB) was 0%, the inhibition at 10 µM (PIK3CA (E542K)) was 43% and the inhibition at 10 µM (PIK4CB) was 95.9%. The inhibition at 10 µM (PKMYT1) was 0%, the inhibition at 10 µM (RET) was 8% and the inhibition at 10 µM (RIPK4) was 55%. For the same compound, the inhibition at 10 µM [1] was 26%, the inhibition at 10 µM [2] was 36% and the inhibition at 10 µM (SGK2) was 88%. For the same compound, the inhibition at 10 µM (SGK3) was 55%, the inhibition at 10 µM (TAOK2) was 37% and the inhibition at 10 µM (TGFBR2) was 24%. It also gave an inhibition at 10 µM (VPS34) of 27%, an inhibition at 10 µM (VRK2) of 0% and an inhibition at 10 µM (YANK3) of 0%.
